The target in assay [1] is T1, NS3 (Hepatitis C virus, UniProt A3EZJ3). The assay is described as follows: Inhibitory activity against hepatitis C virus (HCV) NS3 protease (full-length). Details: species or system Hepacivirus hominis.
Assay [2] concerns the target T1, NS3. The assay is described as follows: Inhibitory activity against hepatitis C virus (HCV) NS3 protease (isolated domain). Details: species or system Hepacivirus hominis.
A further assay addresses NS3 (Hepatitis C virus) (UniProt A3EZJ3). Put plainly: Inhibitory activity against hepatitis C virus (HCV) NS3 protease (isolated domain) at a concentration of 6 uM. Particulars: Hepacivirus hominis.

Where a SMILES comes first, the peptide text is derived from it. [ ]: non-standard residue; d: D form. Dip = N[C@H](C(=O)O)C(c1ccccc1)c1ccccc1; 2Nal = N[C@@H](Cc1ccc2ccccc2c1)C(=O)O; dGla = N[C@H](CC(C(=O)O)C(=O)O)C(=O)O; Cha = N[C@@H](CC1CCCCC1)C(=O)O

16 compounds from ChEMBL document CHEMBL1133784, “Inhibition of hepatitis C virus NS3 protease activity by product-based peptides is dependent on helicase domain” (Bioorg Med Chem Lett, 2001) can be followed below.

T1 sequence (A3EZJ3 whole entry, the tested form may be a part): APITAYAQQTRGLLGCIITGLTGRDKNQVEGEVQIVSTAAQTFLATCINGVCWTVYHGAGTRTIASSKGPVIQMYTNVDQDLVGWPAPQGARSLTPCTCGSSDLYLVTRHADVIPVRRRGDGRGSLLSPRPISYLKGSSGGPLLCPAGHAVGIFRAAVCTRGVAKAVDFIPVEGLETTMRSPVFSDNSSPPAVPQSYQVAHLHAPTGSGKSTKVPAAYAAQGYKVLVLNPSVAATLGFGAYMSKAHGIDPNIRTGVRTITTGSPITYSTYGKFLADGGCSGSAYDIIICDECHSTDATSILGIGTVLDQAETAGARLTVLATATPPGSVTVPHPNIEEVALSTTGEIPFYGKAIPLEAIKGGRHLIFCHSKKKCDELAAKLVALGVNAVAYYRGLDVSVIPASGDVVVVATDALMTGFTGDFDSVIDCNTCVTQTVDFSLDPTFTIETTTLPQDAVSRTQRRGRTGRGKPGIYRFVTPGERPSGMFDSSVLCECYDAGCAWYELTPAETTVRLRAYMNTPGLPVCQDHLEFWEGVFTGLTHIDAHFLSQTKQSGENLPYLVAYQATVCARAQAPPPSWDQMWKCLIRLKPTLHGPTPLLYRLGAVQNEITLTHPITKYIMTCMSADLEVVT
Chain of NS3 (Hepatitis C virus) (A3EZJ3 as listed by the source): as the sequence (A3EZJ3 whole entry, the tested form may be a part) above

As to `CC(C)C[C@H](NC(=O)[C@@H](CCC(=O)O)NC(=O)[C@@H](N)CC(=O)O)C(=O)N[C@@H](CCC(=O)O)C(=O)N[C@@H](CC1CCCCC1)C(=O)N[C@@H](CS)C(=O)O`, the Ki (usually the dissociation constant of the complex between target and ligand, obtained from inhibition or displacement) at NS3 [1] was 1540 nM.
`CC(=O)N[C@@H](CC(=O)O)C(=O)N[C@@H](CCC(=O)O)C(=O)N[C@@H](CC(C)C)C(=O)N[C@@H](CCC(=O)O)C(=O)N[C@@H](CC1CCCCC1)C(=O)N[C@@H](CS)C(=O)O`: the Ki on NS3 [1] was 490 nM; on NS3 [2], 60 nM.
For `CC(=O)N[C@@H](CC(=O)O)C(=O)N[C@H](CCC(=O)O)C(=O)N[C@@H](CC(C)C)C(=O)N[C@@H](CCC(=O)O)C(=O)N[C@@H](CC1CCCCC1)C(=O)N[C@@H](CS)C(=O)O`, in that order: 180 nM and 23 nM.
For `CSCC[C@H](NC(=O)[C@H](CCC(=O)O)NC(=O)[C@H](CC(=O)O)NC(C)=O)C(=O)N[C@@H](CCC(=O)O)C(=O)N[C@@H](Cc1ccc2ccccc2c1)C(=O)N[C@@H](CS)C(=O)O` (Ac-DEME[2Nal]C-OH), in that order: 1040 nM and 180 nM.
The matching figures for `CSCC[C@H](NC(=O)[C@H](CCC(=O)O)NC(=O)[C@H](CC(=O)O)NC(C)=O)C(=O)N[C@@H](CCC(=O)O)C(=O)N[C@@H](CC1CCCCC1)C(=O)N[C@@H](CS)C(=O)O` (Ac-DEME[Cha]C-OH): 440 nM and 400 nM.
With `CC(=O)N[C@@H](CC(=O)O)C(=O)N[C@@H](CCC(=O)O)C(=O)N[C@H](C(=O)N[C@@H](CCC(=O)O)C(=O)N[C@@H](CC1CCCCC1)C(=O)N[C@@H](CS)C(=O)O)C(c1ccccc1)c1ccccc1` (Ac-DE[Dip]E[Cha]C-OH), the results for the inhibitory constant (Ki) at NS3 [1] and at NS3 [2] were 41 nM and 25 nM, respectively.
The matching figures for `CC[C@H](C)[C@H](NC(=O)[C@@H](NC(=O)[C@H](CCC(=O)O)NC(=O)[C@H](CC(=O)O)NC(C)=O)C(c1ccccc1)c1ccccc1)C(=O)N[C@@H](CC1CCCCC1)C(=O)N[C@@H](CS)C(=O)O` (Ac-DE[Dip]I[Cha]C-OH): 220 nM and 30 nM.
As for `CC(=O)N[C@@H](CC(=O)O)C(=O)N[C@@H](CCC(=O)O)C(=O)N[C@H](C(=O)N[C@@H](CCCCN)C(=O)N[C@@H](CC1CCCCC1)C(=O)N[C@@H](CS)C(=O)O)C(c1ccccc1)c1ccccc1` (Ac-DE[Dip]K[Cha]C-OH), the inhibition (in general, the drop in the measured response relative to a control, in per cent) against NS3 (Hepatitis C virus) came to 8%. This compound also showed an inhibition constant Ki on NS3 [1] of 1240 nM.
As for `CC[C@H](C)[C@H](NC(=O)[C@H](CC(C)C)NC(=O)[C@@H](CC(C(=O)O)C(=O)O)NC(=O)[C@H](CC(=O)O)NC(C)=O)C(=O)N[C@@H](CC1CCCCC1)C(=O)N[C@@H](CS)C(=O)O` (Ac-D[dGla]LI[Cha]C-OH), the Ki came to 12 nM at NS3 [1] and 0.75 nM on NS3 [2].
For `CC(=O)N[C@@H](CCC(=O)O)C(=O)N[C@H](C(=O)N[C@@H](CCC(=O)O)C(=O)N[C@@H](CC1CCCCC1)C(=O)N[C@@H](CS)C(=O)O)C(c1ccccc1)c1ccccc1` (Ac-E[Dip]E[Cha]C-OH), in that order: 330 nM and 700 nM.
For `CC[C@H](C)[C@H](NC(=O)[C@@H](NC(=O)[C@H](CCC(=O)O)NC(C)=O)C(c1ccccc1)c1ccccc1)C(=O)N[C@@H](CC1CCCCC1)C(=O)N[C@@H](CS)C(=O)O` (Ac-E[Dip]I[Cha]C-OH), in that order: 1000 nM and 1200 nM.
For `CC(=O)N[C@@H](CCC(=O)O)C(=O)N[C@@H](CC1CCCCC1)C(=O)N[C@@H](CS)C(=O)O` (Ac-Glu-[Cha]-Cys-OH), in that order: 4100 nM and 230000 nM.
In turn, `CC[C@H](C)[C@H](NC(C)=O)C(=O)N[C@@H](CC1CCCCC1)C(=O)N[C@@H](CS)C(=O)O` (Ac-Ile-[Cha]-Cys-OH) had a Ki at NS3 [1] of 25000 nM.
In the case of `CC(=O)N[C@H](C(=O)N[C@@H](CCC(=O)O)C(=O)N[C@@H](CC1CCCCC1)C(=O)N[C@@H](CS)C(=O)O)C(c1ccccc1)c1ccccc1` (Ac-[Dip]E[Cha]C-OH), the inhibition constant (Ki) was 1100 nM at NS3 [1] and 15000 nM at NS3 [2].
The matching figures for `CC[C@H](C)[C@H](NC(=O)[C@@H](NC(C)=O)C(c1ccccc1)c1ccccc1)C(=O)N[C@@H](CC1CCCCC1)C(=O)N[C@@H](CS)C(=O)O` (Ac-[Dip]I[Cha]C-OH): 2100 nM and 50000 nM.
The matching figures for Ac-DEMEEC-OH: 360 nM and 500 nM.
